Data as given in article PMC4766629, “Biochemical and functional characterization of Plasmodium falciparum DNA polymerase δ” (Malaria Journal, 2016).
Converted amounts (≈) assume the structure as drawn. Where two headings read alike, the source gives them in different places.

How the values were obtained:
[1] = system: Plasmodium falciparum K1 strain; assay: Inhibition of intra-erythrocytic P. falciparum growth in culture (SYBR Green I-based assay); assay type: cell-based; settings: K1 strain (chloroquine- and pyrimethamine-resistant), in vitro growth, triplicate
Method: Plasmodium falciparum strain K1, a chloroquine- and pyrimethamine-resistant strain from Thailand [28] was cultivated in RPMI 1640 medium (Invitrogen™, CA, USA) supplemented with 10 % human serum and human red blood cell (RBC) at 37 °C under an atmosphere of 5 % CO2. Plasmodium falciparum cultures containing mostly trophozoite and schizont stages were harvested when parasitaemia was >10 % by centrifugation at 500×g for 10 min at 25 °C.
Plasmodium falciparum K1 strain was synchronized at ring stage using 5 % D-sorbitol treatment and then mixed with culture medium containing RPMI 1640 medium supplement with 10 % human serum. Twofold serial dilutions of each test compound were evaluated in triplicate. Parasite growth was determined by a SYBR Green I-based assay. Dose–response curves and IC50 values were obtained using SigmaPlot 12.0.

[2] = target: T1, PfPolδ-cat (Plasmodium falciparum, UniProt P30315); assay: DNA polymerase assay, inhibitory effects of compounds on PfPolδ-cat activity; assay type: biochemical
T1 construct: The 3285-bp full-length PfPolδ-cat of P. falciparum K1 strain was successfully amplified and cloned; thioredoxin (N); His6 (C); made in house; host or cells: Escherichia coli LMG194
T1 sequence (P30315 whole entry): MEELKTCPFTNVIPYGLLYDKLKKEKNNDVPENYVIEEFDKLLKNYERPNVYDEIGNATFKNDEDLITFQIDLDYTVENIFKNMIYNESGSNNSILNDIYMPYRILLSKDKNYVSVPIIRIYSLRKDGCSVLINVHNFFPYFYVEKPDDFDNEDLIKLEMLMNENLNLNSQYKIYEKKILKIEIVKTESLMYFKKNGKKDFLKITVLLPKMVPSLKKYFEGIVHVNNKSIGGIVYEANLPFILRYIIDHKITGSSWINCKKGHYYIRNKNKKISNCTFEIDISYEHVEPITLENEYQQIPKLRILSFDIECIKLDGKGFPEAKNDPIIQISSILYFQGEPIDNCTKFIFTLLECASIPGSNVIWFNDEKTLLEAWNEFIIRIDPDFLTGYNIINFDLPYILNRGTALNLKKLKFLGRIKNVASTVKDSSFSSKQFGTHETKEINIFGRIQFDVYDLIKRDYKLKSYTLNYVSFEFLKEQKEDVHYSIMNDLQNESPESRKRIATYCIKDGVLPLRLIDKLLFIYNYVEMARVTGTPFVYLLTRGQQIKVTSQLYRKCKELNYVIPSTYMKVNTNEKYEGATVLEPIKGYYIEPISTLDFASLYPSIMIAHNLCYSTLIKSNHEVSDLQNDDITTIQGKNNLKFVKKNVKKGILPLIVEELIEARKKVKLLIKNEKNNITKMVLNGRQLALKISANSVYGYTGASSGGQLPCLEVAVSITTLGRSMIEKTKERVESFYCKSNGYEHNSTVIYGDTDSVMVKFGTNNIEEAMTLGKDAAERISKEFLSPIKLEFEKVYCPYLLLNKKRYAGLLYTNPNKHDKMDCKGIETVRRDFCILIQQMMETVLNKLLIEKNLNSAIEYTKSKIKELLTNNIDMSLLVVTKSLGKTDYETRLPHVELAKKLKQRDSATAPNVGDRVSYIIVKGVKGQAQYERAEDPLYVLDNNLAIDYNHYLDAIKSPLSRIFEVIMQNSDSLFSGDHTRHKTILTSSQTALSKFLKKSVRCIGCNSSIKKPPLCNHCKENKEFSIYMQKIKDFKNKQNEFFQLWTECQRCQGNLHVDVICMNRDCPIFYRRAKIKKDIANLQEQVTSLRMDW
Method: DNA polymerase activity was assayed using activated calf thymus DNA (CT-DNA) (Sigma-Aldrich, MA, USA) as substrate. DNA polymerase assay was conducted in a 50-μl reaction mixture containing 10 μg of activated CT-DNA, 20 mM potassium phosphate buffer pH 8, 10 mM MgCl2, 2 mM DTT, 10 μg BSA, 50 μM each of dGTP, dATP and dCTP, 1 μM dTTP, 2.5 μM [α-^32P]dTTP (800 Ci/mmol; PerkinElmer, MA, USA), and 42 nM PfPolδ-cat. After incubation for 1 h at 37 °C, the reactions were terminated by adding a 250-μl mixture of 20 mM EDTA, 0.1 mg/ml BSA and 100 μl of 50 % trichloroacetic acid (TCA), followed by sedimentation. The precipitate was then washed twice with 1 % TCA and [^32P]dTMP incorporation was measured in a 1450 MicroBeta® Trilux Liquid Scintillation Counter (Perkin Elmer). One unit of DNA polymerase activity is defined as the amount of enzyme that catalyzes the incorporation of 1 nmol of dTMP into DNA in 1 h at 37 °C.
Inhibitory activity of 11 compounds consisting of substrate and nucleotide analogs and potential active site occupiers of PfPolδ-cat were compared with known Pol δ inhibitors, aphidicolin and N-ethylmaleimide (NEM). Stock solution (6 mM) of aphidicolin was prepared in dimethylsulfoxide (DMSO) and that of NEM (400 mM) in absolute ethanol. Stock solutions (10 mM) of N^2-(4-butylphenyl)-2′-deoxyguanosine 5′-triphosphate (BuPdGTP), N^2-(4-butylphenyl)- 2′-deoxyguanosine 5′-(P^2,P^3-carbonyltriphosphonate) (BuPdGMPPCOP), N^2-ethyl-2′-deoxyguanosine 5′-[…] (EtdGTP), N^2-hexyl-2′-deoxyguanosine 5′-triphosphate (HexdGTP) and Acyclovir triphosphate (ACV-TP) were prepared in sterile distilled water, while those of 2-amino-4-chloro-6-(3,4-dichloroanilino)pyrimidine, 2-amino-4-chloro-6-(3,5-dichloroanilino)pyrimidine, N^2-(3,4-dichlorobenzyl)guanine (DCBG), N^2-(3-fluoro,4-chlorobenzyl)guanine, 3-(4-hydroxybutyl)-6-(3-ethyl-4-methylanilino)uracil (HB-EMAU), and 7-acetoxypentyl-(3,4-dichlorobenzyl)guanine (7-acetoxypentyl-DCBG) were prepared in DMSO. All stock solutions were stored at −20 °C until used. Test concentrations of compounds were prepared by diluting stock solution with 10 mM Tris–HCl pH 8.0 and evaluated in triplicate. Compounds were added directly to the reaction mixtures except for NEM that was pre-incubated with enzyme for 30 min on ice before addition to the reaction mixture. Polymerase activity assays were conducted as described above.

[3] = set-up: method as in PMID 21684746; settings: IP dose of 60 mg/kg; cited from earlier work
[4] = set-up: method as in PMID 21684746; settings: potent antibiotic; cited from earlier work
[5] = recombinant PfPolδ-cat DNA polymerase activity, activated CT-DNA, 1 h at 37 °C, triplicate, read-out: IC50 PfPolδ-cat

IC50 ([1]; Plasmodium falciparum)	SMILES	IC50 [2, 5]	further results
347 ± 8.3 µM	Nc1nc2c(ncn2COCCOP(=O)(O)OP(=O)(O)OP(=O)(O)O)c(=O)[nH]1 [Acyclovir triphosphate]		
86.4 ± 0.2 µM	CCCCCCNc1nc2c(ncn2[C@H]2C[C@H](O)[C@@H](COP(=O)(O)OP(=O)(O)OP(=O)(O)O)O2)c(=O)[nH]1 [HexdGTP, N^2-hexyl-2′-deoxyguanosine 5′-triphosphate]		
	C[C@@]1(CO)[C@H](O)CC[C@@]2(C)[C@H]1CC[C@H]1C[C@@H]3C[C@@]12CC[C@]3(O)CO [aphidicolin, reference compound]		IC50 [2]: 11.8 µM
	CC(=O)OCCCCCn1cnc2nc(NCc3ccc(Cl)c(Cl)c3)[nH]c(=O)c21 [7-acetoxypentyl-DCBG, 7-acetoxypentyl-(3,4-dichlorobenzyl)guanine]	55 ± 3.4 µM	IC50 [1]: 4.1 ± 0.2 µM; mice survived after treatment [3]: 80%; MIC [4]: 1.25 µg/mL (≈ 2.85 µM)
	CCCCc1ccc(Nc2nc3c(ncn3C3CC(O)C(COP(=O)(O)OP(=O)(O)C(=O)P(=O)(O)O)O3)c(=O)[nH]2)cc1 (centres unmarked) [BuPdGMPPCOP, N^2-(4-butylphenyl)-2′-deoxyguanosine 5′-(P^2,P^3-carbonyltriphosphonate)]		IC50 [1]: 173 ± 2.7 µM; IC50 PfPolδ-cat (Inactive = <20 % inhibition at 100 μM) ([2]; recombinant PfPolδ-cat DNA polymerase activity, 100 μM compound): Inactive^a
8.8 ± 0.5 µM	O=c1[nH]c(NCc2ccc(Cl)c(Cl)c2)nc2nc[nH]c12 [DCBG, N^2-(3,4-dichlorobenzyl)guanine]		
7.4 ± 0.3 µM	O=c1[nH]c(NCc2ccc(Cl)c(F)c2)nc2nc[nH]c12 [N^2-(3-fluoro,4-chlorobenzyl)guanine]		

SMILES	IC50 ([1]; Plasmodium falciparum)	IC50 [2, 5]	further results
Nc1nc(Cl)cc(Nc2ccc(Cl)c(Cl)c2)n1 [2-amino-4-chloro-6-(3′,4′-dichloroanilino)pyrimidine]	3.8 ± 0.3 µM	104 ± 5.6 µM	
Nc1nc(Cl)cc(Nc2cc(Cl)cc(Cl)c2)n1 [2-amino-4-chloro-6-(3′, 5′-dichloroanilino)pyrimidine]	34.4 ± 0.4 µM	185 ± 7.7 µM	
CCCCc1ccc(Nc2nc3c(ncn3[C@H]3C[C@H](O)[C@@H](COP(=O)(O)OP(=O)(O)OP(=O)(O)O)O3)c(=O)[nH]2)cc1 [BuPdGTP, N^2-(4-butylphenyl)-2′-deoxyguanosine 5′-triphosphate]	85.6 ± 3.7 µM	38 ± 1.7 µM	
